Experimental data from BindingDB's records for patent US20260008775 (Genentech, 2026).
pKi: −log10 of the molar value.

Target: 3-beta-hydroxysteroid-Delta(8),Delta(7)-isomerase (Homo sapiens, UniProt Q15125)
Assay: Determination of Binding Affinity to EBP-7-Dehydrocholesterol Reductase
Description: The plates were sealed and incubated at 4° C. for 3 hrs. Then, the plates were washed with ice-cold assay buffer 3 times. […] Following this, the plate was centrifuged at 1000 rpm for 30 secs. The plate was then sealed and agitated at 600 rpm at 22° C. for 5 min, and then incubated at 22° C. for 3 hrs. The incubation was stopped by transferring the binding solution to the pre-treated UniFilter-96 GF/B plate, vacuum filtrated, and then washed four times with ice-cold assay buffer. Following this, the plates were dried at 37° C. for 45 min. The plates were then sealed at the bottom. 40 µl/well of scintillation cocktail was added to the plates.

3-beta-hydroxysteroid-Delta(8),Delta(7)-isomerase, sequence (Q15125 whole entry): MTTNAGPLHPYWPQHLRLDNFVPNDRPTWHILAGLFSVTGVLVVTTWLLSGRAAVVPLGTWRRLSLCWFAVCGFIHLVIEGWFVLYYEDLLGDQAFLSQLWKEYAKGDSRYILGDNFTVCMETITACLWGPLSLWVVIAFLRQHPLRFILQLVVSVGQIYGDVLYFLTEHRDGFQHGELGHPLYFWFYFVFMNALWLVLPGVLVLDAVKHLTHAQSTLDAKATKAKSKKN

pKi: 6.73
Structure (SMILES): CC(C)n1nc(-c2cncc(C(F)(F)F)c2)cc1[C@H]1[C@@H]2C[C@@H](N3CCOCC3)C[C@@H]21 [US20260008775, Example Table4.2]
